Eight molecules from patent publication US20230109801A1 (Blue Oak Pharmaceuticals, Inc., priority 2020, published 2023) can be followed below.

What is called minimal effective dose is the lowest level tested that produced the effect sought.

The assay deals with mice. The assay is described as follows: SmartCube in vivo neuropharmacological behavioral assay. The note with it: for minimal effective dose: Mus musculus, ip, dose having 50% or more total activity in SmartCube, i.p., read-out: MED (minimal effective dose); for AD: antidepressant, percent probability / AG: analgesic, percent probability / AP: antipsychotic, percent probability / AX: anxiolytic, percent probability / CE: cognitive enhancer, percent probability / HA: hallucinogenic, percent probability / MS: mood stabilizer, percent probability / PS, percent probability / SD: sedative hypnotic, percent probability / SE: side effects, percent probability / UN: uncharacterized CNS activity, percent probability / XG: anxiogenic, percent probability: SmartCube, i.p. 15 min before test, at the MED. An outline of the steps:
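Mice dosed i.p. with compound in Pharmasolve (NMP) 15 min before automated video capture of behavior; doses e.g. 0.3–30 mg/kg. Behavioral signature compared with reference-drug classes, giving per-class probability (0–100, 0 = LOQ); MED = lowest dose with ≥50% total activity.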

Counter-ions that a name gives are not always drawn.

With `CCC(C)N1C2CCC1c1ccccc12` (centres unmarked) [Compound 44, 11-(Butan-2-yl)-11-azatricyclo[6.2.1.0^2,7]undeca-2,4,6-triene hydrochloride], the minimal effective dose was 1 to 10 mg/kg; the “AD: antidepressant, percent probability” value is given as “++++ (50% ≤ X <1 00%)”; the “AG: analgesic, percent probability” value is given as “+ (LOQ ≤ X < 5%)”; the “AP: antipsychotic, percent probability” value is recorded as “+ (LOQ ≤ X < 5%)”. In addition, the “AX: anxiolytic, percent probability” value is on record as “++ (5% ≤ X < 25%)”; the “CE: cognitive enhancer, percent probability” value is on record as “+ (LOQ ≤ X < 5%)”; the “HA: hallucinogenic, percent probability” value is “+ (LOQ ≤ X < 5%)”; the “MS: mood stabilizer, percent probability” value is “+ (LOQ ≤ X < 5%)”. Also, the “PS, percent probability” value is “++ (5% ≤ X < 25%)”; the “SD: sedative hypnotic, percent probability” value (shortened to “SD … percent probability”) was “+ (LOQ ≤ X < 5%)”; the “SE: side effects, percent probability” value is given as “+ (LOQ ≤ X < 5%)”; the “UN: uncharacterized CNS activity, percent probability” value (shortened to “UN … percent probability”) was “+ (LOQ ≤ X < 5%)”. Further, the “XG: anxiogenic, percent probability” value is recorded as “+ (LOQ ≤ X < 5%)”.

For `CC(C)N1C2C=CC1c1cc(F)c(F)cc12` [Compound 6, 4,5-Difluoro-11-(propan-2-yl)-11-azatricyclo[6.2.1.0^2,7]undeca-2,4,6,9-tetraene hydrochloride], the minimal effective dose was over 30 mg/kg; the “AD: antidepressant, percent probability” value was “++ (5% ≤ X < 25%)”; the “AG: analgesic, percent probability” value was “++++ (50% ≤ X <1 00%)”; the “AP: antipsychotic, percent probability” value is reported as “+ (LOQ ≤ X < 5%)”. Besides, the “AX: anxiolytic, percent probability” value is on record as “+ (LOQ ≤ X < 5%)”; the “CE: cognitive enhancer, percent probability” value is listed as “+ (LOQ ≤ X < 5%)”; the “HA: hallucinogenic, percent probability” value is “+ (LOQ ≤ X < 5%)”; the “MS: mood stabilizer, percent probability” value was “+ (LOQ ≤ X < 5%)”. In addition, the “PS, percent probability” value is recorded as “++ (5% ≤ X < 25%)”; the “SD … percent probability” value is “+ (LOQ ≤ X < 5%)”; the “SE: side effects, percent probability” value is reported as “+ (LOQ ≤ X < 5%)”; the “UN … percent probability” value is listed as “+ (LOQ ≤ X < 5%)”. The “XG: anxiogenic, percent probability” value was “+ (LOQ ≤ X < 5%)”.

For `CC(C)N1C2CCC1c1c(Cl)cccc12` (centres unmarked) [Compound 14, 3-Chloro-11-(propan-2-yl)-11-azatricyclo[6.2.1.0^2,7]undeca-2,4,6-triene hydrochloride], the minimal effective dose is over 30 mg/kg; the “AD: antidepressant, percent probability” value is on record as “+++ (25% ≤ X < 50%)”; the “AG: analgesic, percent probability” value is “++ (5% ≤ X < 25%)”; the “AP: antipsychotic, percent probability” value is recorded as “+ (LOQ ≤ X < 5%)”. Further, the “AX: anxiolytic, percent probability” value was “++ (5% ≤ X < 25%)”; the “CE: cognitive enhancer, percent probability” value is listed as “+ (LOQ ≤ X < 5%)”; the “HA: hallucinogenic, percent probability” value is “+ (LOQ ≤ X < 5%)”; the “MS: mood stabilizer, percent probability” value is on record as “+ (LOQ ≤ X < 5%)”. The “PS, percent probability” value was “++ (5% ≤ X < 25%)”; the “SD … percent probability” value is reported as “+ (LOQ ≤ X < 5%)”; the “SE: side effects, percent probability” value is “+ (LOQ ≤ X < 5%)”; the “UN … percent probability” value was “+ (LOQ ≤ X < 5%)”. Moreover, the “XG: anxiogenic, percent probability” value was “+ (LOQ ≤ X < 5%)”.

As to `c1ccc2c(c1)C1CCC2N1C1CCCC1` [Compound 43, 11-Cyclopentyl-11-azatricyclo[6.2.1.0^2,7]undeca-2,4,6-triene hydrochloride], the minimal effective dose was in the range of 10 to 30 mg/kg; the “AD: antidepressant, percent probability” value is given as “++++ (50% ≤ X <1 00%)”; the “AG: analgesic, percent probability” value is recorded as “+ (LOQ ≤ X < 5%)”; the “AP: antipsychotic, percent probability” value is “+ (LOQ ≤ X < 5%)”. Besides, the “AX: anxiolytic, percent probability” value was “++ (5% ≤ X < 25%)”; the “CE: cognitive enhancer, percent probability” value is “+ (LOQ ≤ X < 5%)”; the “HA: hallucinogenic, percent probability” value was “+ (LOQ ≤ X < 5%)”; the “MS: mood stabilizer, percent probability” value was “+ (LOQ ≤ X < 5%)”. Also, the “PS, percent probability” value is recorded as “++ (5% ≤ X < 25%)”; the “SD … percent probability” value is listed as “+ (LOQ ≤ X < 5%)”; the “SE: side effects, percent probability” value was “+ (LOQ ≤ X < 5%)”; the “UN … percent probability” value is listed as “++ (5% ≤ X < 25%)”. Also, the “XG: anxiogenic, percent probability” value is listed as “+ (LOQ ≤ X < 5%)”.

`CC1CC2c3ccccc3C1N2C(C)C` (centres unmarked) [Compound 51, 9-Methyl-11-(propan-2-yl)-11-azatricyclo[6.2.1.0^2,7]undeca-2,4,6-tri ene hydrochloride]: the minimal effective dose is 1 to 10 mg/kg; the “AD: antidepressant, percent probability” value is on record as “++++ (50% ≤ X <1 00%)”; the “AG: analgesic, percent probability” value is on record as “+ (LOQ ≤ X < 5%)”; the “AP: antipsychotic, percent probability” value is “+ (LOQ ≤ X < 5%)”. Also, the “AX: anxiolytic, percent probability” value is on record as “++ (5% ≤ X < 25%)”; the “CE: cognitive enhancer, percent probability” value is “+ (LOQ ≤ X < 5%)”; the “HA: hallucinogenic, percent probability” value is given as “++ (5% ≤ X < 25%)”; the “MS: mood stabilizer, percent probability” value is reported as “+ (LOQ ≤ X < 5%)”. For the same molecule, the “PS, percent probability” value is listed as “++ (5% ≤ X < 25%)”; the “SD … percent probability” value is on record as “+ (LOQ ≤ X < 5%)”; the “SE: side effects, percent probability” value was “+ (LOQ ≤ X < 5%)”; the “UN … percent probability” value is given as “+ (LOQ ≤ X < 5%)”. For the same molecule, the “XG: anxiogenic, percent probability” value is “+ (LOQ ≤ X < 5%)”.

As for `COCC(C)N1C2C=CC1c1ccccc12` (centres unmarked) [Compound 57, 11-(1-Methoxypropan-2-yl)-11-azatricyclo[6.2.1.0^2,7]undeca-2,4,6,9-tetraene hydrochloride], the minimal effective dose is over 30 mg/kg; the “AD: antidepressant, percent probability” value was “++ (5% ≤ X < 25%)”; the “AG: analgesic, percent probability” value is given as “+ (LOQ ≤ X < 5%)”; the “AP: antipsychotic, percent probability” value was “+ (LOQ ≤ X < 5%)”. For the same molecule, the “AX: anxiolytic, percent probability” value was “+ (LOQ ≤ X < 5%)”; the “CE: cognitive enhancer, percent probability” value is reported as “+ (LOQ ≤ X < 5%)”; the “HA: hallucinogenic, percent probability” value is listed as “+ (LOQ ≤ X < 5%)”; the “MS: mood stabilizer, percent probability” value was “+ (LOQ ≤ X < 5%)”. Moreover, the “PS, percent probability” value is “+ (LOQ ≤ X < 5%)”; the “SD … percent probability” value was “+ (LOQ ≤ X < 5%)”; the “SE: side effects, percent probability” value is “+ (LOQ ≤ X < 5%)”; the “UN … percent probability” value was “+ (LOQ ≤ X < 5%)”. The “XG: anxiogenic, percent probability” value is listed as “+ (LOQ ≤ X < 5%)”.

Take `C1=CC2c3ccccc3C1N2C1CCCC1` [Compound 54, 11-Cyclopentyl-11-azatricyclo[6.2.1.0^2,7]undeca-2,4,6,9-tetraene hydrochloride]: the minimal effective dose was in the range of 10 to 30 mg/kg; the “AD: antidepressant, percent probability” value was “++++ (50% ≤ X <1 00%)”; the “AG: analgesic, percent probability” value is recorded as “++ (5% ≤ X < 25%)”; the “AP: antipsychotic, percent probability” value is given as “+ (LOQ ≤ X < 5%)”. The “AX: anxiolytic, percent probability” value is recorded as “++ (5% ≤ X < 25%)”; the “CE: cognitive enhancer, percent probability” value is “+ (LOQ ≤ X < 5%)”; the “HA: hallucinogenic, percent probability” value is recorded as “+ (LOQ ≤ X < 5%)”; the “MS: mood stabilizer, percent probability” value is reported as “+ (LOQ ≤ X < 5%)”. Besides, the “PS, percent probability” value is “++ (5% ≤ X < 25%)”; the “SD … percent probability” value is given as “+ (LOQ ≤ X < 5%)”; the “SE: side effects, percent probability” value is reported as “+ (LOQ ≤ X < 5%)”; the “UN … percent probability” value is recorded as “++ (5% ≤ X < 25%)”. Also, the “XG: anxiogenic, percent probability” value was “+ (LOQ ≤ X < 5%)”.

As for `CC1C2NC(c3ccccc32)C1C` (centres unmarked) [Compound 48, 9,10-Dimethyl-11-azatricyclo[6.2.1.0^2,7]undeca-2,4,6-triene hydrochloride], the minimal effective dose was 10 to 30 mg/kg; the “AD: antidepressant, percent probability” value is recorded as “++ (5% ≤ X < 25%)”; the “AG: analgesic, percent probability” value is listed as “+ (LOQ ≤ X < 5%)”; the “AP: antipsychotic, percent probability” value is recorded as “+ (LOQ ≤ X < 5%)”. Besides, the “AX: anxiolytic, percent probability” value is “++ (5% ≤ X < 25%)”; the “CE: cognitive enhancer, percent probability” value is recorded as “++++ (50% ≤ X <1 00%)”; the “HA: hallucinogenic, percent probability” value is reported as “++ (5% ≤ X < 25%)”; the “MS: mood stabilizer, percent probability” value is given as “+ (LOQ ≤ X < 5%)”. For the same molecule, the “PS, percent probability” value is reported as “++ (5% ≤ X < 25%)”; the “SD … percent probability” value was “+ (LOQ ≤ X < 5%)”; the “SE: side effects, percent probability” value was “+ (LOQ ≤ X < 5%)”; the “UN … percent probability” value was “+ (LOQ ≤ X < 5%)”. Besides, the “XG: anxiogenic, percent probability” value is “+ (LOQ ≤ X < 5%)”.
